Test results: patent US20210379589A1, “Microfluidic Chip For Analysis Of Cell Motility And Methods For Using Same” (The Johns Hopkins University, priority 2013, published 2021)

Key:
[1] = tested on: MDA-MB-231 cells; test: Microchannel migration device assay, MDA-MB-231 cells; format: cell-based, human
Experimental: Cell seeding and live cell migration experiments: Cells were grown to continency, trypsinized, and resuspended in serum-free medium at 2×10^6 cells/ml. 50 μl of cell suspension was added to the cell inlet well. Cells were incubated in the device for 5-10 minutes at 37° C. to allow initial cell seeding at the base of “Y” channels. The cell suspension was then removed from the cell inlet port. The device was washed with DPBS before the addition of medium to the inlet ports of the device. In select experiments, PI3K activity was inhibited by the addition of 10 μM LY294002 in the medium through the entire course of migration. The migration chamber was moved to a temperature- and CO2-controlled stage-top live cell incubator (Okolab, Italy) mounted on the motorized stage of an inverted Nikon Eclipse Ti microscope (Nikon, Tokyo, Japan) with automated controls (NIS-Elements, Nikon). Migrating cells were imaged with a 10×-magnification phase contrast objective every 10 minutes for up to 16 hours. Analysis of Cell Migration: Video tiles were exported to Image1 for analysis. All cells that entered the channel were tracked while fully inside the channel and before reaching either end of the channel using the lmageJ MTrackJ plugin at 10 minute intervals. Cells were also dynamically traced with the imageJ polygon ROI capability at 30 minute intervals. Dividing cells were not tracked. Cell position data were used to calculate cell speed over each 10 minute interval, and these speeds were averaged to get an overall average speed for each cell. Additionally, the chemotactic index, defined as the cell displacement divided by the total distance travelled by the cell, was calculated. Cell shape data were used to calculate cell circularity and fit elliptical angle using the Measure function in ImageJ Statistical significance was assessed with non-paired Student's t-test. Cells were further defined as migratory or non-migratory. Migratory cells were defined as those cells which reached the bifurcation in the Y-shaped microchannel; all other cells were defined as non-migratory. […]

[2] = tested on: Hs578t cells; test: Microchannel migration device assay, Hs578t cells; format: cell-based; conditions: 10 μM LY294002, 400 μm-long Y-shaped migration channels; control 20±7%
Experimental: (§1) Cell seeding and live cell migration experiments: Cells were grown to continency, trypsinized, and resuspended in serum-free medium at 2×10^6 cells/ml. 50 μl of cell suspension was added to the cell inlet well. Cells were incubated in the device for 5-10 minutes at 37° C. to allow initial cell seeding at the base of “Y” channels. The cell suspension was then removed from the cell inlet port. The device was washed with DPBS before the addition of medium to the inlet ports of the device. In select experiments, PI3K activity was inhibited by the addition of 10 μM LY294002 in the medium through the entire course of migration. The migration chamber was moved to a temperature- and CO2-controlled stage-top live cell incubator (Okolab, Italy) mounted on the motorized stage of an inverted Nikon Eclipse Ti microscope (Nikon, Tokyo, Japan) with automated controls (NIS-Elements, Nikon). Migrating cells were imaged with a 10×-magnification phase contrast objective every 10 minutes for up to 16 hours. Analysis of Cell Migration: Video tiles were exported to Image1 for analysis. All cells that entered the channel were tracked while fully inside the channel and before reaching either end of the channel using the lmageJ MTrackJ plugin at 10 minute intervals. Cells were also dynamically traced with the imageJ polygon ROI capability at 30 minute intervals. Dividing cells were not tracked. […]

[3] = tested on: Bt549 cells; test: Microchannel migration device assay, Bt549 cells; format: cell-based; conditions: 10 μM LY294002, 400 μm-long Y-shaped migration channels; control 32±8%
Experimental: as §1

O=c1cc(N2CCOCC2)oc2c(-c3ccccc3)cccc12 [LY294002]
migratory cell population ([1]; 10 μM LY294002, 200 μm-long microchannels, control 25%): 65%
ratio of contact guided cells ([1]; 10 μM LY294002, 200 μm-long microchannels, control 66%): 93%
percentage of migratory cells ([1]; 10 μM LY294002, 400 μm-long Y-shaped migration channels, control 22±3%): 34±8%
percentage of migratory cells [2]: 15±2%
percentage of migratory cells [3]: 19±1%
